According to US6849602B1 (The Regents of the University of California, priority 1996, dated 2005):
Entries after “also recorded” stand apart in the source; their conditions may differ. Non-standard residues stand in square brackets, D forms with d. No end group written: not given here.

Columns and labels:
[1] = tested on: control rats; assay: Formalin test in control rats; format: in vivo, rat; settings: single bolus doses of up to 1 mg/kg i.p. 30 min pre-test
[2] = tested on: Schwann cells; assay: Schwann cell death in culture (inhibition of demyelination); format: cell-based
From the text: Reduction of Schwann cell death is correlated with inhibition of demyelination. Schwann cells contain an extensive myelin sheath.

[3] = tested on: NS20Y cells; assay: Neural cell death (trypan blue) in NS20Y cells; format: cell-based; settings: 8 ng/ml, 2 days in 0.5% fetal bovine serum
Description: Media is removed and 0.2% trypan blue in PBS is added to each well. Dead cells stain blue with the trypan blue dye and are scored as a percentage of the total on an inverted microscope, counting 400 cells in four areas of each well. The average error of duplicates is ±5%.

[4] = tested on: NS20Y neuroblastoma cells; assay: Neurite outgrowth in NS20Y neuroblastoma cells; format: cell-based
Description: NS20Y neuroblastoma cells are grown in Dulbecco's modified Eagle medium (DMEM) containing 10% fetal calf serum (FCS). Cells are removed with trypsin and plated in 30 mm petri dishes onto glass coverslips. […] Cells are cultured for an additional 24 hours, washed with PBS and fixed with Bouin's solution (saturated aqueous picric acid/formalin/acetic acid 15:5:1) for 30 minutes. After fixative is removed with PBS, neurite outgrowth is scored under a phase contrast microscope. […] At least 200 cells are scored in different positions of each dish to determine the percentage of neurite bearing cells with each peptide assayed in duplicate.

[5] = tested on: taxol-treated mice; assay: Loss of thermal sensation (Hargreaves) in taxol-treated mice; format: in vivo, mouse; settings: 100 μg/kg, 200 μg/kg or 1 mg/kg
Description: Mice were administered taxol in order to induce sensory neuropathy.
The loss of thermal sensation was measured using a Hargreaves sensory testing apparatus as an indicator of sensory neuropathy.

[6] = tested on: neuroblastoma cells; assay: Neurotrophic activity (neurite outgrowth, choline acetyltransferase, cell death); format: cell-based
[7] = tested on: Selzer rat model; assay: Hyperalgesia (hot plate withdrawal) in Selzer model rats; format: in vivo; settings: intravenous at a dose of 200 mg/kg
Description: After induction of hyperalgesia by ligation of the sciatic nerve in one hind limb, the animals were injected with Prosaptide TX 14(A). Relief was measured using the hot plate withdrawal technique comparing ligated vs. unligated hind foot withdrawal. […] The relief lasted for up to 48 hours post injection.

[8] = tested on: Newborn mouse cerebellar explants; assay: Ex vivo myelination assay in newborn mouse cerebellar explants; format: cell-based; settings: 10 μg/ml
Description: Newborn mouse cerebellar explants are prepared according to Satomi, Zool. Sci. 9:127-137 (1992). Neurite outgrowth and myelination are observed over 22 days in culture, during the period when the newborn mouse cerebellum normally undergoes neuronal differentiation and myelination begins. […] Neurite outgrowth and myelination in three control and three treated explants is assessed under a bright field microscope with a video camera. On the eighth day, cultures containing the peptides are thinner and more spread out than control cultures. […] Such projections are absent or less prominent in control cultures. […] Thus, the peptide of the invention induces myelination in differentiating cerebellum ex vivo.

[9] = tested on: STZ-diabetic rats; assay: Nerve function, thermal response and body weight in STZ-diabetic rats; format: in vivo, rat; settings: for decline in SNCV between weeks 4 and 8 of diabetes: 200 μg/kg i.p. thrice weekly beginning after 4 weeks of diabetes
Description: Control and STZ-diabetic rats were treated using 1000 μg prosaptide TX 14(A) per kg body weights i.p., three times per week for 8 weeks.
In this EXAMPLE, control and STZ-diabetic rats were treated with prosaptide TX 14(A) at doses of 20 μg/kg, 200 μg/kg, and 1000 μg/kg body weight, i.p., three times per week for 8 weeks. The rats were weighed at the beginning, midpoint and the end of the experiment and motor nerve conduction (MNCV) and sensor nerve conduction velocity (SNCV) measurements were taken at the three time points.
These deficits were attenuated by thrice weekly treatment (1 mg/kg i.p. for 8 weeks) with prosaptide (58.1±1.2 and 54.9±1.3 respectively).
This EXAMPLE was designed to determine whether prosaptide could also reverse conduction deficits and hyperalgesia in the formalin test pain model once these disorders are established in diabetic rats. SNCV was measured before onset of diabetes and 4-8 weeks later in groups of control, untreated diabetic and prosaptide-treated (200 μg/kg i.p. thrice weekly for the last 4 weeks) diabetic rats. Flinch responses to injection of formalin (50 μl or 0.5% or 5.0% solution) were followed for 60 min in control, 8 week untreated diabetic, 8 week diabetic treated with prosaptide (200 μg/kg i.p.) 30 min pre-test and 8 week diabetic treated with prosaptide (200 μg/kg i.p.) thrice weekly for the last 4 weeks (the last treatment being 48-72 hr pre-test).

[10] = tested on: Chung model rats; assay: Tactile allodynia (von Frey, 50% paw withdrawal threshold) after bolus intrathecal injection in Chung model rats; format: in vivo, rat
Description: Each of the three peptides were obtained in pure form by chemical synthesis, dissolved in sterile PBS and buffered to a neutral pH.
The surgical procedure previously described by Kim and Chung, supra (1992) was performed on male Sprague-Dawley rats weighing 120 to 150 grams to induce an allodynic state. Briefly, the rats were anesthetized with halothane; subsequently, the left L-5 and L-6 spinal nerves were isolated adjacent to the vertebral column and ligated with 6.0 silk suture distal to the dorsal root ganglion.
After a ten to fourteen day post operative recovery period, a spinal catheter was introduced. Five days following the second surgery, intrathecal drug administration was accomplished using a gear driven micro-injection syringe connected to a spinal catheter inserted through the foramen magnum. Prior to testing, the rats were placed in clear plastic wire meshed cages and allowed to acclimate.
To assess the 50% mechanical threshold for paw withdrawal, a von Frey hair was applied to the hind foot avoiding the foot pad. Each of the von Frey hairs, which are calibrated to bend at increasing log forces, were pressed perpendicularly to the foot with sufficient force to cause slight bending for a duration of approximately six to eight seconds. A positive response was noted if the foot was sharply withdrawn. Six data points were collected for each point with the maximum and minimum stimulus noted for each time point. The resulting pattern of the responses was tabulated, and the 50% response threshold was computed. The graph gives the response to the indicated dosage of peptide given as a single intrathecal bolus injection. The X-axis indicates the time after the injection at which point the hypersensitivity to pressure on the foot pad was measured.

[11] = 1 mg/kg i.p. thrice weekly for 8 weeks, diabetic rats

For T[dA]LIDNNATEEILY [SEQ ID NO:2], the “responses to formalin in control rats” value [1] was “without effect on responses to formalin”, the Schwann cell death [2] was “reduces Schwann cell death in a dose-dependent manner” and the “number of trypan blue-positive (dead) cells” value [3] was “substantially reduces the number of trypan blue-positive (dead) cells”. For the same substance, the “neurite outgrowth (percentage of neurite bearing cells)” value ([4]; 24 hours, compared to a scrambled control peptide) was “significantly increases neurite outgrowth”, the “concentration at which increased neurite outgrowth is evident” value ([4]; as little as) was 0.5 ng/mL and the “loss of thermal sensation” value [5] was “effective in inhibiting loss of thermal sensation”. For the same substance, the neurotrophic activity [6] was “have neurotrophic activity”, the “duration of relief post injection” value [7] was “up to 48 hours” and the relief of hyperalgesia [7] was “nearly complete relief of hyperalgesia”. The “time after injection to relief” value [7] was ≤ 3 h, the “myelinated axons in the subcortical white matter” value ([8]; 22 days, compared to control explants) was “significantly more myelinated axons” and the “neurite outgrowth (long projections) in explants” value ([8]; day 15) was “contain many cells with long projections at the periphery of the explant”. For the same substance, the thermal response latency ([9]; 20 μg treatment group) was “intermediate response”, the “decline in SNCV between weeks 4 and 8 of diabetes” value ([9]; listed as prosaptide) was “prevents any further decline in SNCV” and the “decline in SNCV between weeks 4 and 8 of diabetes” value ([9]; listed as prosaptide TX 14(A)) was “halts progressive slowing of sensory conduction”. The thermal hypoalgesia ([9]; 1000 μg per kg i.p., three times per week for 8 weeks) was “prevented hypoalgesia”, the “hyperglycemia and loss of body weight” value ([9]; 1000 μg per kg i.p., three times per week for 8 weeks (EXAMPLE XIV)) was “did not prevent hyperglycemia or loss of body weight” and the MNCV [9, 11] was 58.1±1.2 m/s. For the same substance, the SNCV [9, 11] was 54.9±1.3 m/s, the “thermal response latency (thermal hypoalgesia)” value [9, 11] was 8.8 ± 0.6 s and the “weight loss compared to diabetic animals” value ([9]; 20, 200 and 1000 μg/kg i.p., three times per week for 8 weeks) was “significant decreases in weight loss in a dose dependent manner”. For the same substance, the thermal response latency ([9]; 200 and 1000 μg) was “restored to control non-diabetic levels”, the “motor nerve conduction velocities” value ([9]; 200 and 1000 μg/kg, compared to untreated diabetic group and 20 μg/kg) was “enhanced motor nerve conduction velocities” and the “loss of sensory nerve conduction velocity” value ([9]; all treated groups (20, 200, 1000 μg/kg)) was “slower loss of sensory nerve conduction velocity”. The “thermal hypoalgesia and decline in nerve conduction velocities during 8 weeks of diabetes” value ([9]; time course study, thrice weekly 20, 200 or 1000 μg i.p.) was “attenuated by prosaptide in a dose-dependent manner”, the “time of maximum (peak) effect post-injection” value ([10]; intrathecal bolus) was 15 to 30 min and the “time of return to the pre-injection value” ([10]; intrathecal bolus, FIG. 2) was ≤ 60 min. For the same substance, the “tactile allodynia (force threshold)” value ([10]; intrathecal bolus, doses of FIG. 2) was “effective in reducing allodynia” and the “activity in alleviating neuropathic pain as assayed using Chung rats” value ([10]; summary statement) was “reduces the painful allodynia; also recorded: alleviate neuropathic pain”.
